Test [1] deals with T1, Amine oxidase [flavin-containing] B (Homo sapiens, UniProt P27338).
T1 sequence (P27338 whole entry): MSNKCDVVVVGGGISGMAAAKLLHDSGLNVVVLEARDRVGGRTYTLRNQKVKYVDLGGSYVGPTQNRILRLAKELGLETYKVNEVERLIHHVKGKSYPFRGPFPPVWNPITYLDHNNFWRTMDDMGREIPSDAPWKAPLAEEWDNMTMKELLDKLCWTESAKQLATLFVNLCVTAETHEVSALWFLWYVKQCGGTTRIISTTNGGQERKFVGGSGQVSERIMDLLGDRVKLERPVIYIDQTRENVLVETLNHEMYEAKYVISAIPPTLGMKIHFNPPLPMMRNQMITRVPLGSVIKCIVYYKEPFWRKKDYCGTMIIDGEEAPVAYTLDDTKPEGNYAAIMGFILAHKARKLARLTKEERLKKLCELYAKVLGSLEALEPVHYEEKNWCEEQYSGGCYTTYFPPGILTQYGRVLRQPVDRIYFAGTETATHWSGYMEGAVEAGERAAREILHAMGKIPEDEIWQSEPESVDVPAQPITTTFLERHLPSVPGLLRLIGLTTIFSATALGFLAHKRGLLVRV
Nature of the test: Inhibition of human recombinant MAO-B using benzylamine hydrochloride as substrate assessed as H2O2 synthesis at 10 uM after 1 hr by fluorescence assay. The settings on record: read-out: INH.

In test [2] the target is T1, Amine oxidase [flavin-containing] B. As to the kind of experiment: Inhibition of human recombinant MAO-B using benzylamine hydrochloride as substrate assessed as H2O2 synthesis after 1 hr by fluorescence assay.

From ChEMBL document CHEMBL2417454, “Oxazolopyridines and thiazolopyridines as monoamine oxidase B inhibitors for the treatment of Parkinson's disease” (Bioorg Med Chem, 2013) come the findings set out here.

The IC50 is the point on the concentration scale where inhibition reaches its midpoint.

For the compound `Fc1ccc(-c2nc3ccc(N4CCCCC4)nc3s2)cc1`, the inhibition at 10 µM in test [1] stood at 92.7%. For the same compound, the IC50 in test [2] came to 26.5 nM.

Regarding `Clc1ccccc1-c1nc2ccc(N3CCCCC3)nc2o1`, the inhibition at 10 µM in test [1] worked out at 96.3%. For the same compound, in test [2], the half-inhibitory concentration (IC50) amounted to 267 nM. For `c1ccc(-c2nc3ccc(N4CCCCC4)nc3o2)cc1`, in that order: 86.8% and 1370 nM. Regarding `c1ccc(CNc2ccc3nc(-c4ccccc4)oc3n2)cc1`, the inhibition at 10 µM in test [1] was 4.8%.

As for `c1ccc(-c2nc3ccc(N4CCCCC4)nc3s2)cc1`, the inhibition at 10 µM in test [1] is 95.5%. Further, the IC50 in test [2] was 356 nM.

Take `Clc1cccc(-c2nc3ccc(N4CCCCC4)nc3o2)c1`: the inhibition at 10 µM in test [1] was determined as 91.7%. Also, in test [2], the concentration for half-maximal inhibition (IC50) was found to be 335 nM.

With `Clc1ccc(-c2nc3ccc(N4CCCCC4)nc3o2)cc1`, the inhibition at 10 µM in test [1] was determined as 69.8%. Moreover, the concentration for half-maximal inhibition (IC50) in test [2] came out at 890 nM.

For `Clc1ccccc1-c1nc2ccc(N3CCCCC3)nc2s1`, the inhibition at 10 µM in test [1] worked out at 95.1%. Besides, the IC50 in test [2] came to 171 nM.

For the compound `Fc1ccc(-c2nc3ccc(N4CCCCC4)nc3o2)cc1`, the inhibition at 10 µM in test [1] came to 93.4%. In addition, the concentration for half-maximal inhibition (IC50) in test [2] turned out to be 270 nM. For `Fc1ccccc1-c1nc2ccc(N3CCCCC3)nc2o1`, in that order: 94.9% and 665 nM.

For `c1ccc(-c2nc3ccc(N4CCCCCC4)nc3o2)cc1`, in test [1], the inhibition at 10 µM came to 57.9%. Take `CNc1ccc2nc(-c3ccccc3)oc2n1`: the inhibition at 10 µM in test [1] turned out to be 19%. For `Clc1ccc(-c2nc3ccc(N4CCCCC4)nc3s2)cc1`, the inhibition at 10 µM in test [1] came out at 84.2%. For the same compound, the IC50 in test [2] was 358 nM. As to `Fc1cccc(-c2nc3ccc(N4CCCCC4)nc3o2)c1`, in test [1], the inhibition at 10 µM is 89.7%. As for `c1ccc(-c2nc3ccc(NC4CCCCC4)nc3o2)cc1`, the inhibition at 10 µM in test [1] was 79.1%. Also, the IC50 in test [2] is 2540 nM. On to `CN(Cc1ccccc1)c1ccc2nc(-c3ccccc3)oc2n1`, for which the inhibition at 10 µM in test [1] was 3.7%.
